Measurements reported in patent US7537765B2, “Inhibition of HIV-1 replication by disruption of the processing of the viral capsid-spacer peptide 1 protein” (priority 2003, dated 2009).
Read-outs that look alike come from different tables or passages of the source.

What was measured:
[1] = test system: HIV-1 replication in H9 lymphocyte cells; conditions: cited from earlier work
[2] = test system: primary Clade B HIV-1 isolates; test: Virus inhibition assay, primary HIV-1 isolates in PBMC, p24 endpoint; assay type: cell-based; conditions: Human immunodeficiency virus 1, PBMC
Experimental: (§1) A robust virus inhibition assay was used to evaluate the anti-viral activity of DSB against primary HIV-1 isolates propagated in PMBC. Briefly, serial dilutions of DSB were made in medium into 96-well tissue culture plates. 25-250 TCID50 of virus and 5×10^5 PHA-stimulated PBMCs were added to each well. On days 1, 3 and 5 post-infection, media was removed from each well and replaced with fresh media containing DSB at the appropriate concentration. On day 7 post-infection, culture supernatant was removed from each well for p24 detection of virus replication and 50% inhibitory concentrations (IC50) were calculated by standard methods.

[3] = test system: NNRTI-resistant HIV-1 isolates; test: NNRTI-resistant HIV-1 isolates in MT-2 cells, cell viability (XTT) endpoint; assay type: cell-based; conditions: for IC50: X4, MT-2 cells
Experimental: (§2) The activity of DSB was tested against a panel of HIV-1 isolates resistant to approved drugs. These viruses were obtained from the NIH AIDS Research and Reference Reagent Program. Assays were performed using virus propagated in PBMCs with a p24 endpoint (above), or using cell line targets (MT-2 cells) and a cell killing endpoint. The MT-2 assay format was as follows. Serial dilutions of DSB, or each approved drug, were prepared in 96 well plates. To each sample well was added media containing MT-2 cells at 3×10^5 cells/mL and virus inoculum at a concentration necessary to result in 80% killing of the cell targets at 5 days post-infection (PI). On day 5 post-infection, virus-induced cell killing was determined by the XTT method and the inhibitory activity of the compound was determined.

[4] = test system: HIV-1 infected MAGI cells; assay type: cell-based
From the text: To distinguish the inhibitory activity of DSB against early and late replication targets, a multinuclear activation of a galactosidase indicator (MAGI) assay was used. In this assay, the targets are HeLa cells stably expressing CD4, CXCR4, CCR5 and a reporter construct consisting of the—galactosidase gene (modified to localize to the nucleus) driven by a truncated HIV-1 LTR. Infection of these cells results in expression of Tat that drives activation of the β-galactosidase reporter gene. Expression of β-galactosidase in infected cells is detected using the chromogenic substrate X-gal.

[5] = test system: drug resistant HIV-1 isolates; test: Drug resistant HIV-1 isolates in fresh PBMC, p24 endpoint; assay type: cell-based; conditions: for IC50: Human immunodeficiency virus 1, PBMC
Experimental: as §1, with “concentration.” for “concentration. On day 7 post-infection, culture supernatant was removed from each well for p24 detection of virus replication and 50% inhibitory concentrations (IC50) were calculated by standard methods.”
as §2

[6] = H9 lymphocyte cells, read-out: EC50, inhibitory activity against HIV-1 replication
[7] = 168 h, isolate 92HT599, co-receptor X4, PBMC, p24 day 7, read-out: IC50
[8] = 168 h, isolate 92US723, co-receptor R5/X4, PBMC, p24 day 7, read-out: IC50
[9] = 168 h, isolate 3401N*, co-receptor R5/X4, PBMC, p24 day 7, read-out: IC50
[10] = 168 h, isolate 19101N*, co-receptor R5, PBMC, p24 day 7, read-out: IC50
[11] = 168 h, isolate 22101N*, co-receptor R5/X4, PBMC, p24 day 7, read-out: IC50
[12] = 168 h, isolate BZ167, co-receptor X4, PBMC, p24 day 7, read-out: IC50
[13] = 168 h, isolate US1, co-receptor R5, PBMC, p24 day 7, read-out: IC50
[14] = mean over the panel of primary isolates, read-out: IC50, Mean
[15] = Human immunodeficiency virus 1, MT2, isolate 3, NNRTI-resistant, Y181C
[16] = Human immunodeficiency virus 1, MT2, isolate 4, NNRTI-resistant, K103N Y181C
[17] = isolate 1, NRTI-resistant, K70R T215Y/F, R5/X4
[18] = isolate 2, NRTI-resistant, K70R T215Y/F, R5/X4
[19] = isolate 5, Protease-resistant, V82A, X4
[20] = isolate 6, Protease-resistant, I84V, X4
[21] = isolate 7, Protease-resistant, L10R/M46I/L63P/V82T/I84V, X4

Structure (SMILES): CC(=O)[C@@H]1CC[C@]2(C(=O)O)CC[C@]3(C)[C@H](CC[C@@H]4[C@@]5(C)CC[C@H](O)C(C)(C)[C@@H]5CC[C@]43C)[C@@H]12 [platanic acid]
- EC50 [1, 6]: 6500 nM

Structure (SMILES): Cc1ccnc2c1NC(=O)c1cccnc1N2C1CC1 [Nevirapine, nevirapine]
- IC50 [2, 7]: 25.3 nM
- IC50 [2, 8]: 26.8 nM
- IC50 [2, 9]: 32.1 nM
- IC50 [2, 10]: 59.4 nM
- IC50 [2, 11]: 4.9 nM
- IC50 [2, 12]: 31.2 nM
- IC50 [2, 13]: 22.1 nM
- IC50 [2, 14]: 28.8 nM
- IC50 [3, 15]: > 3800 nM
- IC50 [3, 16]: 2630 nM
- Fold Resistance ([3]; isolate 3, NNRTI-resistant): (>177X)
- Fold Resistance ([3]; isolate 4, NNRTI-resistant): (122X)
- % Decrease (β-galactosidase expression) ([4]; HIV-1 infected MAGI cells): 85%

Structure (SMILES): Cc1cn([C@H]2C[C@H](N=[N+]=[N-])[C@@H](CO)O2)c(=O)[nH]c1=O [AZT, zidovudine]
- IC50 [2, 7]: 5.8 nM
- IC50 [2, 8]: 1.2 nM
- IC50 [2, 9]: 17.5 nM
- IC50 [2, 10]: 2.4 nM
- IC50 [2, 11]: 0.9 nM
- IC50 [2, 12]: 2.2 nM
- IC50 [2, 13]: 0.9 nM
- IC50 [2, 14]: 4.4 nM
- IC50 [5, 17]: 86.4 nM
- IC50 [5, 18]: 63.4 nM
- IC50 [5, 19]: 13.1 nM
- IC50 [5, 20]: 14.4 nM
- IC50 [5, 21]: 3.5 nM
- Fold Resistance ([5]; isolate 1, NRTI-resistant): 54 X
- Fold Resistance ([5]; isolate 2, NRTI-resistant): 40 X
- IC50 [3, 15]: 5.1 nM
- IC50 [3, 16]: 2 nM
- % Decrease (β-galactosidase expression) ([4]; HIV-1 infected MAGI cells): 82%

Structure (SMILES): CC(C)[C@@H]1CC[C@]2(C(=O)O)CC[C@]3(C)C(CCC4[C@@]5(C)CC[C@H](O)C(C)(C)C5CC[C@]43C)C12 (stereo partly drawn) [dihydrobetulinic acid]
- EC50 ([1]; unit inferred, read-out: EC50, anti-HIV activity): 900 nM

Structure (SMILES): C=C(C)[C@@H]1CC[C@]2(C(=O)O)CC[C@]3(C)[C@H](CC[C@@H]4[C@@]5(C)CC[C@H](O)C(C)(C)[C@@H]5CC[C@]43C)[C@@H]12 [Betulinic acid]
- EC50 [1, 6]: 1400 nM

Structure (SMILES): CC(C)(C)NC(=O)[C@@H]1CN(Cc2cccnc2)CCN1C[C@@H](O)C[C@@H](Cc1ccccc1)C(=O)N[C@H]1c2ccccc2C[C@H]1O [Indinavir, indinavir]
- IC50 [5, 17]: 9.8 nM
- IC50 [5, 18]: 6.1 nM
- IC50 [5, 19]: 39.7 nM
- IC50 [5, 20]: 32.7 nM
- IC50 [5, 21]: 72.5 nM
- IC50 [3, 15]: 2.5 nM
- IC50 [3, 16]: 4.5 nM
- % Decrease (β-galactosidase expression) [4]: 10%
